Reference: patent US20050197350A1, “Novel quinoline, tetrahydroquinazoline, and pyrimidine derivatives and methods of treatment related to the use thereof” (TAISHO PHARMACEUTICAL CO., LTD., priority 2003, published 2005)
Counter-ions that a name gives are not always drawn.

Target: MCH receptor (Homo sapiens, UniProt Q99705)
Experiment: High throughput functional screening FLIPR/FDSS6000 (intracellular Ca2+ evoked by MCH)
Format: cell-based
Details: FLIPR/FDSS, antagonist activity vs 50 nM MCH; class by percent of control at 10^−7 M or IC50; table after the classification; read-out: class
In short: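 For antagonist testing, compound-treated cells (30 min, 37 °C) were stimulated with 50 nM MCH and intracellular Ca2+ followed by Fluo4 fluorescence on FLIPR/FDSS6000. Receptor was a constitutively active, non-endogenous MCH receptor; dye loading 4 μM Fluo4-AM, 1 h, 37 °C.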

SMILES	IC50
COc1ccnc(N[C@H]2CC[C@@H](NC(=O)c3cccnc3Oc3ccccc3)CC2)n1 [Example 3134, N-[cis-4-(4-Methoxy-pyrimidin-2-ylamino)-cyclohexyl]-2-phenoxy-nicotinamide hydrochloride]	> 200 nM
COc1cc(OC)nc(N[C@H]2CC[C@@H](NC(=O)c3cccnc3Oc3ccccc3)CC2)n1 [Example 3135, N-[cis-4-(4,6-Dimethoxy-pyrimidin-2-ylamino)-cyclohexyl]-2-phenoxy-nicotinamide hydrochloride]	> 200 nM
CN(C)c1nc(N[C@H]2CC[C@@H](NC(=O)c3cccnc3Oc3ccccc3)CC2)ncc1-c1ccccc1 [Example 3136, N-[cis-4-(4-Dimethylamino-5-phenyl-pyrimidin-2-ylamino)-cyclohexyl]-2-phenoxy-nicotinamide hydrochloride]	> 200 nM
CN(C)N(c1ncc(Cl)cn1)[C@H]1CC[C@@H](NC(=O)c2cccnc2Oc2ccccc2)CC1 [Example 3137, N-[cis-4-(5-Chloro-dimethylamino-pyrimidin-2-ylamino)-cyclohexyl]-2-phenoxy-nicotinamide hydrochloride]	50 to 200 nM
CN(C)c1nc(N[C@H]2CC[C@@H](NC(=O)c3ccc(F)c(F)c3)CC2)ncc1-c1ccccc1 [Example 3138, N-[cis-4-(4-Dimethylamino-5-phenyl-pyrimidin-2-ylamino)-cyclohexyl]-3,4-difluoro-benzamide hydrochloride]	50 to 200 nM
CN(C)c1nc(N[C@H]2CC[C@@H](NC(=O)c3ccc(F)c(F)c3)CC2)ncc1Cl [Example 3139, N-[cis-4-(5-Chloro-4-dimethylamino-pyrimidin-2-ylamino)-cyclohexyl]-3,4-difluoro-benzamide hydrochloride]	50 to 200 nM
CN(C)c1nc(N[C@H]2CC[C@@H](NC(=O)c3cccnc3Oc3ccccc3)CC2)ncc1F [Example 3140, N-[cis-4-(4-Dimethylamino-5-fluoro-pyrimidin-2-ylamino)-cyclohexyl]-2-phenoxy-nicotinamide hydrochloride]	50 to 200 nM
CN(C)c1nc(N[C@H]2CC[C@@H](NC(=O)c3cccnc3Oc3ccccc3)CC2)ncc1Br [Example 3141, N-[cis-4-(5-Bromo-4-dimethylamino-pyrimidin-2-ylamino)-cyclohexyl]-2-phenoxy-nicotinamide hydrochloride]	50 to 200 nM
Cc1cc(C)nc(N[C@H]2CC[C@@H](NC(=O)c3ccc(F)c(F)c3)CC2)n1 [Example 3142, N-[cis-4-(4,6-Dimethyl-pyrimidin-2-ylamino)-cyclohexyl]-3,4-difluoro-benzamide hydrochloride]	> 200 nM
Cc1cc(C)nc(N[C@H]2CC[C@@H](NC(=O)c3cccnc3Oc3ccccc3)CC2)n1 [Example 3143, N-[cis-4-(4,6-Dimethyl-pyrimidin-2-ylamino)-cyclohexyl]-2-phenoxy-nicotinamide hydrochloride]	> 200 nM
O=C(N[C@H]1CC[C@@H](Nc2ncccn2)CC1)c1ccc(F)c(F)c1 [Example 3144, 3,4-Difluoro-N-[cis-4-(pyrimidin-2-ylamino)-cyclohexyl]-benzamide hydrochloride]	> 200 nM
CN(C)c1ccnc(N[C@H]2CC[C@@H](CNC(=O)c3cccnc3Oc3ccccc3)CC2)n1 [Example 3145, N-[cis-4-(4-Dimethylamino-pyrimidin-2-ylamino)-cyclohexylmethyl]-2-phenoxy-nicotinamide hydrochloride]	> 200 nM
O=C(N[C@H]1CC[C@@H](Nc2ccc3ccccc3n2)CC1)c1cccc(O)c1 [Example 3146, 3-Hydroxy-N-[cis-4-(quinolin-2-ylamino)-cyclohexyl]-benzamide hydrochloride]	< 50 nM
COC(=O)c1cccc(C(=O)N[C@H]2CC[C@@H](Nc3ccc4ccccc4n3)CC2)c1 [Example 3147, N-[cis-4-(Quinolin-2-ylamino)-cyclohexyl]-isophthalamic acid methyl ester hydrochloride]	50 to 200 nM
O=C(N[C@H]1CC[C@@H](Nc2ccc3ccccc3n2)CC1)c1cc(C(F)(F)F)cc(C(F)(F)F)c1 [Example 3148, N-[cis-4-(Quinolin-2-ylamino)-cyclohexyl]-3,5-bis-trifluoromethyl-benzamide hydrochloride]	> 200 nM
O=C(N[C@H]1CC[C@@H](Nc2ccc3ccccc3n2)CC1)c1cccc(OC(F)(F)F)c1 [Example 3149, N-[cis-4-(Quinolin-2-ylamino)-cyclohexyl]-3-trifluoromethoxy-benzamide hydrochloride]	50 to 200 nM
O=C(O)c1cccc(C(=O)N[C@H]2CC[C@@H](Nc3ccc4ccccc4n3)CC2)c1 [Example 3150, N-[cis-4-(Quinolin-2-ylamino)-cyclohexyl]-isophthalamic acid]	> 200 nM
CCN(CC(=O)N[C@H]1CC[C@@H](Nc2ccc3ccccc3n2)CC1)c1ccccc1 [Example 3151, C-(Ethyl-phenyl-amino)-N-[cis-4-(quinolin-2-ylamino)-cyclohexyl]-acetamide dihydrochloride]	< 50 nM
O=C(N[C@H]1CC[C@@H](Nc2ccc3ccccc3n2)CC1)c1cc(F)cc(F)c1 [Example 3152, 3,5-Difluoro-N-[cis-4-(quinolin-2-ylamino)-cyclohexyl]-benzamide hydrochloride]	< 50 nM

SMILES	IC50
O=C(N[C@H]1CC[C@@H](Nc2ccc3ccccc3n2)CC1)c1ccc(Cl)c(F)c1 [Example 3153, 4-Chloro-3-fluoro-N-[cis-4-(quinolin-2-ylamino)-cyclohexyl]-benzamide-hydrochloride]	< 50 nM
CCN(CC(=O)N[C@H]1CC[C@@H](Nc2ccc3ccccc3n2)CC1)c1ccc(Cl)cc1 [Example 3154, C-[(4-Chloro-phenyl)-ethyl-amino]-N-[cis-4-(quinolin-2-ylamino)-cyclohexyl]-acetamide dihydrochloride]	< 50 nM
NC(=O)c1cccc(C(=O)N[C@H]2CC[C@@H](Nc3ccc4ccccc4n3)CC2)c1 [Example 3155, N-[cis-4-(Quinolin-2-ylamino)cyclohexyl]-isophthalamide hydrochloride]	> 200 nM
O=C(N[C@H]1CC[C@@H](NCc2ccc3ccccc3n2)CC1)c1ccc(F)c(F)c1 [Example 3156, 3,4-Difluoro-N-{cis-4-[(quinolin-2-ylmethyl)-amino]-cyclohexyl}-benzamide dihydrochloride]	> 200 nM
Cc1cc(N[C@H]2CC[C@@H](NC(=O)c3cc(C(F)(F)F)cc(C(F)(F)F)c3)CC2)nc2ccccc12 [Example 3157, N-[cis-4-(4-Methyl-quinolin-2-ylamino)-cyclohexyl]-3,5-bis-trifluoromethyl-benzamide hydrochloride]	50 to 200 nM
Cc1cc(N[C@H]2CC[C@@H](NC(=O)c3cccc(OC(F)(F)F)c3)CC2)nc2ccccc12 [Example 3158, N-[cis-4-(4-Methyl-quinolin-2-ylamino)-cyclohexyl]-3-trifluoromethoxy-benzamide hydrochloride]	< 50 nM
Cc1cc(N[C@H]2CC[C@@H](NC(=O)c3cccc(O)c3)CC2)nc2ccccc12 [Example 3160, 3-Hydroxy-N-[cis-4-(4-methyl-quinolin-2-ylamino)-cyclohexyl]-benzamide hydrochloride]	< 50 nM
Cc1cc(N[C@H]2CC[C@@H](NC(=O)c3cccnc3N)CC2)nc2ccccc12 [Example 3161, 2-Amino-N-[cis-4-(4-methyl-quinolin-2-ylamino)-cyclohexyl]-nicotinamide dihydrochloride]	50 to 200 nM
Cc1cc(N[C@H]2CC[C@@H](NC(=O)c3cccc(F)c3F)CC2)nc2ccccc12 [Example 3162, 2,3-Difluoro-N-[cis-4-(4-methyl-quinolin-2-ylamino)-cyclohexyl]-benzamide hydrochloride]	50 to 200 nM
Cc1cc(N[C@H]2CC[C@@H](NC(=O)c3ccc(F)cc3F)CC2)nc2ccccc12 [Example 3163, 2,4-Difluoro-N-[cis-4-(4-methyl-quinolin-2-ylamino)-cyclohexyl]-benzamide hydrochloride]	< 50 nM
Cc1cc(N[C@H]2CC[C@@H](NC(=O)c3cc(F)ccc3F)CC2)nc2ccccc12 [Example 3164, 2,5-Difluoro-N-[cis-4-(4-methyl-quinolin-2-ylamino)-cyclohexyl]-benzamide hydrochloride]	50 to 200 nM
Cc1cc(N[C@H]2CC[C@@H](NC(=O)c3c(F)cccc3F)CC2)nc2ccccc12 [Example 3165, 2,6-Difluoro-N-[cis-4-(4-methylquinolin-2-ylamino)-cyclohexyl]-benzamide hydrochloride]	50 to 200 nM
Cc1cc(N[C@H]2CC[C@@H](NC(=O)c3cc(F)cc(F)c3)CC2)nc2ccccc12 [Example 3166, 3,5-Difluoro-N-[cis-4-(4-methylquinolin-2-ylamino)-cyclohexyl]-benzamide hydrochloride]	< 50 nM
Cc1cc(N[C@H]2CC[C@@H](NC(=O)c3ccc(Cl)c(F)c3)CC2)nc2ccccc12 [Example 3168, 4-Chloro-3-fluoro-N-[cis-4-(4-methyl-quinolin-2-ylamino)-cyclohexyl]-benzamide hydrochloride]	< 50 nM
Cc1cc(N[C@H]2CC[C@@H](NC(=O)c3ccc(F)cc3)CC2)nc2ccccc12 [Example 3169, 4-Fluoro-N-[cis-4-(4-methyl-quinolin-2-ylamino)-cyclohexyl]-benzamide hydrochloride]	< 50 nM
Cc1cc(N[C@H]2CC[C@@H](NC(=O)c3cccc(F)c3)CC2)nc2ccccc12 [Example 3170, 3-Fluoro-N-[cis-4-(4-methyl-quinolin-2-ylamino)-cyclohexyl]-benzamide hydrochloride]	< 50 nM
Cc1cc(N[C@H]2CC[C@@H](NC(=O)c3ccccc3F)CC2)nc2ccccc12 [Example 3171, 2-Fluoro-N-[cis-4-(4-methyl-quinolin-2-ylamino)-cyclohexyl]-benzamide hydrochloride]	50 to 200 nM
Cc1cc(N[C@H]2CC[C@@H](NC(=O)c3ccc(Cl)cc3)CC2)nc2ccccc12 [Example 3172, 4-Chloro-N-[cis-4-(4-methyl-quinolin-2-ylamino)-cyclohexyl]-benzamide hydrochloride]	< 50 nM
